Several values for one entry are separate records, joined by “and”; a condition that tells them apart may be missing. Equal entries are not always repeated.
Assays:
[1] = Compound was tested in vitro for its ability to inhibit serine protease elastase using suc-Ala-Ala-Pro-Val-p-nitroanilide as substrate
Coagulation factor X = Coagulation factor X (Homo sapiens, UniProt P00742); test: Compound was tested in vitro for its ability to inhibit serine protease factor Xa using benzoyl-Ile-Glu-Gly-Arg-p-nitroanilide as substrate
Coagulation factor X, sequence (P00742 41-179 limits assumed): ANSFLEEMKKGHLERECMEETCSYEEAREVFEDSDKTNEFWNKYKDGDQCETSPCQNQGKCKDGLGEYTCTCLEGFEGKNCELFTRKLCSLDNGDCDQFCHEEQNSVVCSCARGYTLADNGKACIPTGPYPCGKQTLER
Coagulation factor X, sequence (P00742 235-488 limits assumed): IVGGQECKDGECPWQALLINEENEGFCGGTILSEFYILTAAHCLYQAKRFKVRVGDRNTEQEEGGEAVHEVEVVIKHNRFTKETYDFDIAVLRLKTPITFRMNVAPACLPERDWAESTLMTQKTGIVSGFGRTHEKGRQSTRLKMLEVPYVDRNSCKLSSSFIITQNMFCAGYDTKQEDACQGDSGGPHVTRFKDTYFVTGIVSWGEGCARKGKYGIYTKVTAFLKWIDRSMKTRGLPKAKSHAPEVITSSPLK

Plasminogen = Plasminogen (Homo sapiens, UniProt P00747); test: Compound was tested in vitro for its ability to inhibit serine protease plasmin using tosyl-Gly-Pro-Lys-p-nitroanilide as substrate
Plasminogen, sequence (P00747 97-580 limits assumed): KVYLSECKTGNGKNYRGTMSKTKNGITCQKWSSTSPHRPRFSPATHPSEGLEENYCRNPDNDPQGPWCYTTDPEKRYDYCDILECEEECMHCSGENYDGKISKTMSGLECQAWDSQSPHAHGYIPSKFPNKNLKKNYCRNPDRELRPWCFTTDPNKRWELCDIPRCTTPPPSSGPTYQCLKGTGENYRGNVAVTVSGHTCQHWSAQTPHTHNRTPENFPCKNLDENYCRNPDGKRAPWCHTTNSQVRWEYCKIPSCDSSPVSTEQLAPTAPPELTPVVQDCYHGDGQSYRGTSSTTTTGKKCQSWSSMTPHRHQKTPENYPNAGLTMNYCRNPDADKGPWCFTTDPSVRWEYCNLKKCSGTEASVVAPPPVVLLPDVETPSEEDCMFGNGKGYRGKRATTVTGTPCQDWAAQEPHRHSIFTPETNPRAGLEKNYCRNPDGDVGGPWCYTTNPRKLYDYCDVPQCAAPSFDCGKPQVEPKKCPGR
Plasminogen, sequence (P00747 581-810 limits assumed): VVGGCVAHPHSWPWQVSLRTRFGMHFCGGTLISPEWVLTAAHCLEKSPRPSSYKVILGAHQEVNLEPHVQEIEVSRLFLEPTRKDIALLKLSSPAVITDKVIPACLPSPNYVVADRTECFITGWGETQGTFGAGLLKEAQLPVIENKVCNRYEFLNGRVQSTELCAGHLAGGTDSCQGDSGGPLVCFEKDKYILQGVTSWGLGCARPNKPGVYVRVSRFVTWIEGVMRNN

[2] = target: Urokinase-type plasminogen activator (Homo sapiens, UniProt P00749); test: (§1) Compound was tested in vitro for its ability to inhibit serine protease urokinase using carbobenzyloxy-Phe-Val-Arg-p-nitroanilide as substrate
Prothrombin = Prothrombin (Homo sapiens, UniProt P00734); test: Compound was tested in vitro for its ability to inhibit serine protease thrombin using […] as substrate
[3] = test system: CC(C)[C@H](NC(=O)[C@H](Cc1ccccc1)NC(=O)OCc1ccccc1)C(=O)N[C@@H](CCCN=C(N)N)C(=O)Nc1ccc([N+](=O)[O-])cc1; test: as §1
[4] = compound: C[C@H](NC(=O)CCC(=O)O)C(=O)N[C@@H](C)C(=O)N1CCC[C@H]1C(=O)N[C@@H](Cc1ccccc1)C(=O)Nc1ccc([N+](=O)[O-])cc1; test: Compound was tested in vitro for its ability to inhibit serine protease Chymotrypsinogen using suc-Ala-Ala-Pro-Phe-p-nitroanilide as substrate
[5] = compound: CC(C)[C@H](NC(=O)[C@H](Cc1ccccc1)NC(=O)c1ccccc1)C(=O)N[C@@H](CCCN=C(N)N)C(=O)Nc1ccc([N+](=O)[O-])cc1; test: Compound was tested in vitro for its ability to inhibit serine protease trypsin using benzoyl-Phe-Val-Arg-p-nitroanilide as substrate; settings: Bos taurus

| Ki [1] [µM] | Ki (Coagulation factor X) [µM] | Ki (Plasminogen) [µM] | Ki [2] [µM] | Ki (Prothrombin) [µM] | Molecule | Km [3] | Km [4] | Km [5] |
| --- | --- | --- | --- | --- | --- | --- | --- | --- |
| > 200 | 29 | > 200 | > 200 | 0.32 | Cc1cc(OCC2CCCN(C(=N)N)C2)cc(OS(=O)(=O)c2ccccc2Cl)c1 (stereo unspecified) |  |  |  |
| > 200 | 120 | > 200 | > 200 | 0.26 | Cc1cc(OCCCCCN=C(N)N)cc(OS(=O)(=O)c2ccccc2Cl)c1 |  |  |  |
| > 200 | 80 | > 200 | > 200 | 0.0046 | Cc1cc(OCC2CCN(C(=N)N)CC2)cc(OS(=O)(=O)c2ccccc2Cl)c1 |  |  |  |
| > 200 | 110 | > 200 | > 200 |  | Cc1cc(OCCCCN=C(N)N)cc(OS(=O)(=O)c2ccccc2Cl)c1 |  |  |  |
| > 200 | > 200 | > 200 | > 200 | 0.033 | Cc1cc(OCCCN=C(N)N)cc(OS(=O)(=O)c2ccccc2Cl)c1 |  |  |  |

The next lines start with the molecule.

| Molecule | Ki [1] [µM] | Ki (Coagulation factor X) [µM] | Ki (Plasminogen) [µM] | Ki [2] [µM] | Ki (Prothrombin) [µM] | Km [3] | Km [4] | Km [5] |
| --- | --- | --- | --- | --- | --- | --- | --- | --- |
| Urokinase-type plasminogen activator (Homo sapiens) (from UniProt P00749) |  |  |  |  |  | 190 µM and 170 µM |  |  |
| Cc1cc(OCCN(C)c2ccncc2)cc(OS(=O)(=O)c2ccccc2Cl)c1 | > 200 | 160 | > 200 | > 200 |  |  |  |  |
| Chymotrypsin-C (Homo sapiens), Q99895 (protein) MLGITVLAALLACASSCGVPSFPPNLSARVVGGEDARPHSWPWQISLQYLKNDTWRHTCGGTLIASNFVLTAAHCISNTRTYRVAVGKNNLEVEDEEGSLFVGVDTIHVHKRWNALLLRNDIALIKLAEHVELSDTIQVACLPEKDSLLPKDYPCYVTGWGRLWTNGPIADKLQQGLQPVVDHATCSRIDWWGFRVKKTMVCAGGDGVISACNGDSGGPLNCQLENGSWEVFGIVSFGSRRGCNTRKKPVVYTRVSAYIDWINEKMQL |  |  |  |  |  |  | 60 µM and 100 µM |  |
| Serine protease 1 (Bos taurus), P00760 (protein) MKTFIFLALLGAAVAFPVDDDDKIVGGYTCGANTVPYQVSLNSGYHFCGGSLINSQWVVSAAHCYKSGIQVRLGEDNINVVEGNEQFISASKSIVHPSYNSNTLNNDIMLIKLKSAASLNSRVASISLPTSCASAGTQCLISGWGNTKSSGTSYPDVLKCLKAPILSDSSCKSAYPGQITSNMFCAGYLEGGKDSCQGDSGGPVVCSGKLQGIVSWGSGCAQKNKPGVYTKVCNYVSWIKQTIASN |  |  |  |  |  |  |  | 160 µM and 100 µM |
